Source: patent publication US7932384B2, “Reverse-turn mimetics and method relating thereto” (Choongwae Pharma Corporation, priority 2001, dated 2011)

Legend:
Format in all cases: cell-based
[1] = tested on: cultured tumor cells; assay: Cell death of cultured tumor cells; conditions: 0.5 μM
[2] = tested on: caspase 3; assay: Caspase 3 activity in cultured tumor cells; conditions: 0.5 μM
[3] = tested on: caspase 2; assay: Caspase 2 activity in cultured tumor cells; conditions: 0.5 μM
[4] = tested on: cultured tumor cells; assay: FACS analysis of cells in G0, cultured tumor cells; conditions: 0.5 μM
[5] = tested on: CACO-2; assay: Sulforhodamine B (SRB) assay, CACO-2; conditions: Colon, CACO-2, 48 hours
Description: (§1) Growth inhibitory effect of Compound A on the cells listed below was measured by the sulforhodamine B assay. SW480 cells in 100 μl media were plated in each well of 96-well plate and allowed to attach for 24 hours. Compound A was added to the wells to produce the desired final concentrations, and the plates were incubated at 37° C. for 48 hours. The cells were then fixed by gentle addition of 100 μl of cold (4° C.) 10% trichloroacetic acid to each well, followed by incubation at 4° C. for 1 hour. Plates were washed with deionized water five times and allowed to air dry. The cells were then stained by addition of 100 μl SRB solution (0.4% SRB(w/v) in 1% acetic acid (v/v)) to wells for 15 min. After staining, the plates were quickly washed five times with 1% acetic acid to remove any unbound dye, and allowed to air dry. Bound dye was solubilized with 10 mmol/L Tris base (pH 10.5) prior to reading the plates. The optical density (OD) was read on a plate reader at a wavelength of 515 nm with Molecular Device. Inhibition of growth was expressed as relative viability (% of control) and GI50 was calculated from concentration-response curves after log/probit transformation.
(§2) The values in Table 6 are in μg/ml.

[6] = tested on: ACHN; assay: Sulforhodamine B (SRB) assay, ACHN; conditions: Renal, 48 hours
Description: as §1, §2

[7] = tested on: HT29; assay: Sulforhodamine B (SRB) assay, HT29; conditions: Colon, HT29, 48 hours
Description: as §1, §2

[8] = tested on: SW480-Kribb; assay: Sulforhodamine B (SRB) assay, SW480-Kribb; conditions: Colon, 48 hours
Description: as §1, §2

[9] = tested on: NCI H460; assay: Sulforhodamine B (SRB) assay, NCI H460; conditions: Lung, NCI H460, 48 hours
Description: as §1, §2

[10] = tested on: COLO205; assay: Sulforhodamine B (SRB) assay, COLO205; conditions: Colon, COLO205, 48 hours
Description: as §1, §2

[11] = tested on: SK-MEL-5; assay: Sulforhodamine B (SRB) assay, SK-MEL-5; conditions: Melanoma, SK-MEL-5, 48 hours
Description: as §1, §2

[12] = tested on: SK-MEL-28; assay: Sulforhodamine B (SRB) assay, SK-MEL-28; conditions: Melanoma, SK-MEL-28, 48 hours
Description: as §1, §2

[13] = tested on: CAKI-1; assay: Sulforhodamine B (SRB) assay, CAKI-1; conditions: Renal, CAKI-1, 48 hours
Description: as §1, §2

[14] = tested on: HT1080; assay: Sulforhodamine B (SRB) assay, HT1080; conditions: Prostate, HT1080, 48 hours
Description: as §1, §2

[15] = tested on: NCI H23; assay: Sulforhodamine B (SRB) assay, NCI H23; conditions: Lung, NCI H23, 48 hours
Description: as §1, §2

[16] = tested on: M14; assay: Sulforhodamine B (SRB) assay, M14; conditions: Melanoma, M14, 48 hours
Description: as §1, §2

[17] = tested on: CRL1579; assay: Sulforhodamine B (SRB) assay, CRL1579; conditions: Melanoma, CRL1579, 48 hours
Description: as §1, §2

[18] = tested on: T84; assay: Sulforhodamine B (SRB) assay, T84; conditions: Colon, T84, 48 hours
Description: as §1, §2

[19] = tested on: K562; assay: Sulforhodamine B (SRB) assay, K562; conditions: Leukemia, K562, 48 hours
Description: as §1, §2

[20] = tested on: G361; assay: Sulforhodamine B (SRB) assay, G361; conditions: Melanoma, G361, 48 hours
Description: as §1, §2

[21] = tested on: SW480-CWP; assay: Sulforhodamine B (SRB) assay, SW480-CWP; conditions: Colon, 48 hours
Description: as §1, §2

[22] = tested on: HCC2998; assay: Sulforhodamine B (SRB) assay, HCC2998; conditions: Colon, HCC2998, 48 hours
Description: as §1, §2

[23] = tested on: SW620; assay: Sulforhodamine B (SRB) assay, SW620; conditions: Colon, SW620, 48 hours
Description: as §1, §2

[24] = tested on: UACC62; assay: Sulforhodamine B (SRB) assay, UACC62; conditions: Melanoma, UACC62, 48 hours
Description: as §1, §2

[25] = tested on: MCF7; assay: Sulforhodamine B (SRB) assay, MCF7; conditions: Breast, MCF7, 48 hours
Description: as §1, §2

[26] = tested on: A253; assay: Sulforhodamine B (SRB) assay, A253; conditions: Melanoma, A253, 48 hours
Description: as §1, §2

[27] = tested on: HL60; assay: Sulforhodamine B (SRB) assay, HL60; conditions: Leukemia, HL60, 48 hours
Description: as §1, §2

[28] = tested on: HCT15; assay: Sulforhodamine B (SRB) assay, HCT15; conditions: Colon, HCT15, 48 hours
Description: as §1, §2

[29] = tested on: K562/VIN; assay: Sulforhodamine B (SRB) assay, K562/VIN; conditions: Leukemia, 48 hours
Description: as §1, §2

[30] = tested on: K562/ADR; assay: Sulforhodamine B (SRB) assay, K562/ADR; conditions: Leukemia, 48 hours
Description: as §1, §2

[31] = tested on: LOVO; assay: Sulforhodamine B (SRB) assay, LOVO; conditions: Colon, 48 hours
Description: as §1, §2

[32] = tested on: A431; assay: Sulforhodamine B (SRB) assay, A431; conditions: Melanoma, A431, 48 hours
Description: as §1, §2

[33] = tested on: A549; assay: Sulforhodamine B (SRB) assay, A549; conditions: Lung, A549, 48 hours
Description: as §1, §2

[34] = tested on: HMV-I; assay: Sulforhodamine B (SRB) assay, HMV-I; conditions: Melanoma, 48 hours
Description: as §1, §2

[35] = tested on: DLD-1; assay: Sulforhodamine B (SRB) assay, DLD-1; conditions: Colon, DLD-1, 48 hours
Description: as §1, §2

[36] = tested on: HCT116; assay: Sulforhodamine B (SRB) assay, HCT116; conditions: Colon, HCT116, 48 hours
Description: as §1, §2

[37] = tested on: A375; assay: Sulforhodamine B (SRB) assay, A375; conditions: Melanoma, A375, 48 hours
Description: as §1, §2

[38] = tested on: 293; assay: Sulforhodamine B (SRB) assay, 293; conditions: Renal, 293, 48 hours
Description: as §1, §2

[39] = tested on: PC3; assay: Sulforhodamine B (SRB) assay, PC3; conditions: Prostate, PC3, 48 hours
Description: as §1, §2

[40] = tested on: LOX-IMVI; assay: Sulforhodamine B (SRB) assay, LOX-IMVI; conditions: Melanoma, 48 hours
Description: as §1, §2

[41] = tested on: MCF7/ADR; assay: Sulforhodamine B (SRB) assay, MCF7/ADR; conditions: Breast, 48 hours
Description: as §1, §2

[42] = tested on: RPMI7951; assay: Sulforhodamine B (SRB) assay, RPMI7951; conditions: Melanoma, RPMI7951, 48 hours
Description: as §1, §2

[43] = tested on: 786-0; assay: Sulforhodamine B (SRB) assay, 786-0; conditions: Renal, 786-0, 48 hours
Description: as §1, §2

[44] = tested on: KM12; assay: Sulforhodamine B (SRB) assay, KM12; conditions: Colon, KM12, 48 hours
Description: as §1, §2

[45] = tested on: RPMI8226; assay: Sulforhodamine B (SRB) assay, RPMI8226; conditions: Leukemia, RPMI8226, 48 hours
Description: as §1, §2

Molecule: CN[C@@H]1C[C@H]2O[C@@](C)([C@@H]1OC)n1c3ccccc3c3c4c(c5c6ccccc6n2c5c31)C(=O)NC4 [stausporine, staurosporine, reference compound]
- cell death [1]: promote cell death
- caspase 3 activity [2]: increased both the caspase 2 and caspase 3 activities
- caspase 2 activity [3]: increased both the caspase 2 and caspase 3 activities
- number of cells in G0 (FACS) [4]: increase the number of cells in G0

Molecule: 2-Methyl-5-(p-hydroxyphenylmethyl)-7-naphthylmethyl-3,6-dioxo-hexahydro-[1,2,4]triazolo[4,5-a]pyrazine-1-carboxylic acid benzylamide [Example 4]
- GI50 (SRB assay) [5]: 1.201 µg/mL
- GI50 (SRB assay) [6]: 1.263 µg/mL
- GI50 (SRB assay) [7]: 1.694 µg/mL
- GI50 (SRB assay) [8]: 1.137 µg/mL
- GI50 (SRB assay) [9]: 1.498 µg/mL
- GI50 (SRB assay) [10]: 1.136 µg/mL
- GI50 (SRB assay) [11]: 0.888 µg/mL
- GI50 (SRB assay) [12]: 1.291 µg/mL
- GI50 (SRB assay) [13]: 0.467 µg/mL
- GI50 (SRB assay) [14]: 1.469 µg/mL
- GI50 (SRB assay) [15]: 1.296 µg/mL
- GI50 (SRB assay) [16]: 2.289 µg/mL
- GI50 (SRB assay) [17]: 1.830 µg/mL
- GI50 (SRB assay) [18]: 1.134 µg/mL
- GI50 (SRB assay) [19]: 1.247 µg/mL
- GI50 (SRB assay) [20]: 0.584 µg/mL
- GI50 (SRB assay) [21]: 0.980 µg/mL
- GI50 (SRB assay) [22]: 1.047 µg/mL
- GI50 (SRB assay) [23]: 1.426 µg/mL
- GI50 (SRB assay) [24]: 0.563 µg/mL
- GI50 (SRB assay) [25]: 7.355 µg/mL
- GI50 (SRB assay) [26]: 1.398 µg/mL
- GI50 (SRB assay) [27]: 1.243 µg/mL
- GI50 (SRB assay) [28]: 2.042 µg/mL
- GI50 (SRB assay) [29]: 1.640 µg/mL
- GI50 (SRB assay) [30]: 7.682 µg/mL
- GI50 (SRB assay) [31]: 0.532 µg/mL
- GI50 (SRB assay) [32]: 1.083 µg/mL
- GI50 (SRB assay) [33]: 1.386 µg/mL
- GI50 (SRB assay) [34]: 1.153 µg/mL
- GI50 (SRB assay) [35]: 1.775 µg/mL
- GI50 (SRB assay) [36]: 0.96 µg/mL
- GI50 (SRB assay) [37]: 1.391 µg/mL
- GI50 (SRB assay) [38]: 0.731 µg/mL
- GI50 (SRB assay) [39]: 1.207 µg/mL
- GI50 (SRB assay) [40]: 1.526 µg/mL
- GI50 (SRB assay) [41]: 9.487 µg/mL
- GI50 (SRB assay) [42]: 0.936 µg/mL
- GI50 (SRB assay) [43]: 1.417 µg/mL
- GI50 (SRB assay) [44]: 1.451 µg/mL

Molecule: N.N.[Cl][Pt][Cl] [Cisplatin, cisplatin, reference compound]
- GI50 (SRB assay) [7]: >10 µg/mL
- GI50 (SRB assay) [8]: >10 µg/mL
- GI50 (SRB assay) [9]: >10 µg/mL
- GI50 (SRB assay) [10]: >10 µg/mL
- GI50 (SRB assay) [11]: >10 µg/mL
- GI50 (SRB assay) [12]: >10 µg/mL
- GI50 (SRB assay) [13]: >10 µg/mL
- GI50 (SRB assay) [14]: >10 µg/mL
- GI50 (SRB assay) [18]: >10 µg/mL
- GI50 (SRB assay) [19]: >10 µg/mL
- GI50 (SRB assay) [22]: >10 µg/mL
- GI50 (SRB assay) [23]: >10 µg/mL
- GI50 (SRB assay) [24]: >10 µg/mL
- GI50 (SRB assay) [25]: >10 µg/mL
- GI50 (SRB assay) [27]: >10 µg/mL
- GI50 (SRB assay) [28]: >10 µg/mL
- GI50 (SRB assay) [29]: >10 µg/mL
- GI50 (SRB assay) [30]: >10 µg/mL
- GI50 (SRB assay) [31]: >10 µg/mL
- GI50 (SRB assay) [33]: >10 µg/mL
- GI50 (SRB assay) [45]: >10 µg/mL
- GI50 (SRB assay) [35]: >10 µg/mL
- GI50 (SRB assay) [36]: >10 µg/mL
- GI50 (SRB assay) [37]: >10 µg/mL
- GI50 (SRB assay) [39]: >10 µg/mL
- GI50 (SRB assay) [40]: >10 µg/mL
- GI50 (SRB assay) [44]: >10 µg/mL
